Key:
[1] = test system: HepG2 and primary rat hepatocytes; assay: Release of Annexin V-positive MPs from hepatocytes (flow cytometry); format: cell-based, human (HepG2); rat (primary hepatocytes); details: hepatocytes incubated with 0.25 mM FFA up to 24 h, vs controls (FIGS. 2D, 2F, 9)
Experimental: For microparticles (MPs) isolation, HepG2 and primary rat hepatocytes were seeded onto a 100 mm dish and cultured until reaching 80-85% of confluence. Cells were incubated with 0.25 mM of palmitic, stearic, oleic or linoleic acid (FFA) in serum-free DMEM, supplemented with 1.1% penicillin and streptomycin, 1% endotoxin-free bovine serum albumin (BSA), for up to 24 h. […] The uptake of FFAs from hepatocytes was evaluated by Oil red-O staining kit (Cayman, Ann Arbor, Mich., USA) according to the manufacturer instruction. To determine the effect of caspase 3 activity, hepatocytes were treated with a selective caspase 3 inhibitor, Ac-DEVD-CHO (BD Pharmingen, Franklin Lakes, N.J., US). Control cells were incubated with the same serum-free media in association to the vehicle that was used to dissolve the FFAs. After 24 h, the supernatant were collected and centrifuged twice at 3,000 rpm for 15 minutes to remove cell debris and aggregates. The supernatant was then transferred to new tubes and ultracentrifuged at 100,000 g for 90 minutes at 10° C., to avoid contamination of exosomes.
The supernatant was collected in new tubes and used as a MP-free control and the pelleted MPs were resuspended in 200 μl of PBS for flow cytometry or in 500 μl of EGM-2 growth medium for subsequent in vitro studies. The concentration of microparticles μg/mL was determined by the BCA protein assay and different concentrations of MPs (50, 125, 250 and 500 μg/mL) were used to perform the dose-dependent angiogenesis in vitro assays. For selected purposes, in particular for the characterization analyses, crude MPs were purified by 10-70% sucrose gradient ultracentrifugation at 150,000 g for 18 h at 10° C., collected as fractions in new tubes. […]
Flow cytometry analyses for microparticles (or endothelial cells) detection were performed by using BD LSRII Flow Cytometer System (BD Biosciences, San Jose, Calif., USA) and the data were analyzed using FlowJo software (TreeStar Inc., Ashland, Oreg., USA). […]

HUVECs = assay: HUVEC tube formation assay; format: cell-based, human; details: supernatants from HepG2/primary rat hepatocytes incubated with FFA up to 24 h; VEGF-A positive control
Experimental: HUVECs (0.5-1×10^5 cells per well) were seeded onto a coated 24-well plate culture dishes with 200 μl/cm2 (thick gel method) of Matrigel (BD, Franklin Lakes, N.J., USA) and cultured in EBM-2 basal medium supplemented with 1.1% of streptomycin and penicillin in the presence of 100 ng/mL of VEGF (Peprotech, Rocky Hill, N.J., USA), hepatocytes-derived MPs, MP-free supernatant or conditioned supernatant collected after 24 hours of treatment with FFAs. In selective studies, a specific inhibitor for RhoA-ROCK (Y27632, 10 μM) was used in association with MPs in the treatment of endothelial cells. For the ex vivo studies, PFP isolated from different groups of mice (chow, HF/HCarb, MCD fed mice and mice injected with control RNA, VNN1 siRNA or PBS as vehicle) were ultracentrifuged at 100,000 g for 1 h at 10° C. to pellet the blood MPs. HUVECs were treated with MPs (or blood pure MPs) and incubated for 5 h at 37° C. Tube formation was investigated by using an inverted microscope at 4× magnification and images were captured. Tube formation image analysis was assessed by using Wimtube software (Wimasis, Munich, Germany) and the values referred to total tube length (pixel) were used for statistical and data analysis.

Row | tube formation induced by cell-free supernatants of FFA-treated hepatocytes (HUVECs) | SMILES | Annexin V positive MPs in supernatants (MP formation/release) [1]
1 | not | CCCCCCCC/C=C\CCCCCCCC(=O)O [oleic acid] | failed to induce any increase
2 | marked increase | CCCCCCCCCCCCCCCC(=O)O [palmitic acid] | marked increase
